Assay [1] addresses T1, GLS1 (purified recombinant human GAC) (Homo sapiens, UniProt O94925).
T1 sequence (O94925 55-598 isoform O94925-3 limits assumed): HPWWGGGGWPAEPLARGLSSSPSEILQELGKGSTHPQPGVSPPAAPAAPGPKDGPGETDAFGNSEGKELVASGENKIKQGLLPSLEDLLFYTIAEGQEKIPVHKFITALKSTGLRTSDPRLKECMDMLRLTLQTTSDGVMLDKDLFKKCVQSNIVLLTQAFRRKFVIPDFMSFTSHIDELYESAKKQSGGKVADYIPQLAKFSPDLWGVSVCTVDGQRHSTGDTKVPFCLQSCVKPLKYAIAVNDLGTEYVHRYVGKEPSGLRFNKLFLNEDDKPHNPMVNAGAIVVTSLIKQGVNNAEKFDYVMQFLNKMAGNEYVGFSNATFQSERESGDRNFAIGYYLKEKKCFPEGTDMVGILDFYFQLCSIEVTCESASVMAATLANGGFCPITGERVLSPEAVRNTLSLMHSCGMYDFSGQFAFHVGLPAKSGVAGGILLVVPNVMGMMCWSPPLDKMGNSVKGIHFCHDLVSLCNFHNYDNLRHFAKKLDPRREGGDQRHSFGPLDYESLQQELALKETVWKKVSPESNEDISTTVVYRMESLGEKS
The experiment in a line: GLS1 Enzymatic Activity Assay (dual-coupled enzymatic assay). It counts as biochemical. As to conditions: 50 mM potassium phosphate, 1 mM glutamine, read-out: IC50 against GLS1. As for the experimental part: GLS1 Enzymatic Activity Assay
The inhibition of purified recombinant human GAC by varying concentrations of inhibitors is assessed via a dual-coupled enzymatic assay. The glutamate produced by the glutaminase reaction is used by glutamate oxidase to produce α-ketoglutarate, ammonia, and hydrogen peroxide, with this hydrogen peroxide subsequently being used by horseradish peroxidase to produce resorufin in the presence of Amplex UltraRed. The assay buffer consisted of 50 mM HEPES (pH 7.4), 0.25 mM EDTA and 0.1 mM Triton X-100. GAC was incubated with potassium phosphate (10 minutes at room temperature) prior to incubation with inhibitor (10 minutes at room temperature). The final reaction conditions were as follows: 2 nM GAC, 50 mM potassium phosphate, 100 mU/ml glutamate oxidase (Sigma), 1 mM glutamine (Sigma), 100 mU/ml horseradish peroxidase (Sigma), 75 μM Amplex UltraRed (Life Technologies), and 1% (v/v) DMSO. The production of resorufin was monitored on a Perkin Elmer Envision plate reader (excitation 530 nm, emission 590 nm) either in a kinetics or endpoint mode (at 20 minutes). IC50 values were calculated using a four-parameter logistic curve fit.

For assay [2], the system named is A549 cells. The experiment in a line: Proliferation Assay (A549 viability, Cell Titer Fluor, 72 hours). The assay is classed as cell-based. As to conditions: Homo sapiens, read-out: EC50 against A549 cell proliferation. As for the experimental part: A549 cells were routinely maintained in RPMI 1640 media (Gibco catalog number 11875-093) supplemented with 10% dialyzed fetal bovine serum using a humidified incubator (37° C., 5% CO2 and ambient O2). In preparation for the viability assay, cells were inoculated into 384-well black CulturPlates (Perkin Elmer) at a density of 1000 cells/well in a volume of 40 μl. Following a 24-hour incubation at 37° C., 5% CO2 and ambient 02, cells were treated with compound (10 μl) in a final DMSO concentration of 0.5% (v/v). The microplates were then incubated for 72 hours (37° C., 5% CO2 and ambient O2). Cell Titer Fluor (Promega) was subsequently added (10 μl of 6× reagent) and mixed for 15 minutes at room temperature. The plates were then incubated for 30 minutes (37° C., 5% CO2 and ambient O2) and fluorescence was subsequently read on the Perkin Elmer Envision plate reader. EC50 values were calculated using a four-parameter logistic curve fit.

As for `O=C(Cc1ccccc1)Nc1ccc(N2CCCC(c3nnc(NC(=O)Cc4ccccc4)s3)C2)nn1` (stereo not drawn) [Example 2, 2-Phenyl-N-(6-(3-(5-(2-phenylacetamido)-1,3,4-thiadiazol-2-yl)piperidin-1-yl)pyridazin-3-yl)acetamide], in assay [1], the IC50 was under 100 nM. In assay [2], the EC50 is 100 to 500 nM.

Turning to `Cc1cccc(CNC(=O)c2nnc(N3CCC(c4ccc(NC(=O)Cc5cc(OC6CC(F)(F)C6)cc(C)n5)nn4)C3)s2)n1` (stereo not drawn) [Example 53, 5-(3-(6-(2-(4-(3,3-difluorocyclobutoxy)-6-methylpyridin-2-yl)acetamido)pyridazin-3-yl)pyrrolidin-1-yl)-N-((6-methylpyridin-2-yl)methyl)-1,3,4-thiadiazole-2-carboxamide], in assay [1], the half-inhibitory concentration (IC50) was under 100 nM. Also, the EC50 in assay [2] is under 100 nM. On to `O=C(Cc1cccc(OC(F)(F)F)c1)Nc1ccc(N2CCC(c3nnc(NC(=O)Cc4ccccn4)s3)C2)nn1` (stereo not drawn) [Example 17, 2-(pyridin-2-yl)-N-(5-(1-(6-(2-(3-(trifluoromethoxy)phenyl)acetamido)pyridazin-3-yl)pyrrolidin-3-yl)-1,3,4-thiadiazol-2-yl)acetamide 2,2,2-trifluoroacetate], for which the IC50 in assay [1] is under 100 nM. In addition, the EC50 in assay [2] is under 100 nM. As to `CC(=O)Nc1nnc(C2CCN(c3ccc(NC(=O)Cc4ccccn4)nn3)C2)s1` (stereo not drawn) [Example 12, N-(6-(3-(5-acetamido-1,3,4-thiadiazol-2-yl)pyrrolidin-1-yl)pyridazin-3-yl)-2-(pyridin-2-yl)acetamide], in assay [1], the IC50 was in the range of 100 to 500 nM. On to `O=C(Cc1cccc(OC(F)(F)F)c1)Nc1ccc(N2CCC(n3cc(C(=O)NCc4ccccn4)nn3)C2)nn1` (stereo not drawn) [Example 8, N-(pyridin-2-ylmethyl)-1-(1-(6-(2-(3-(trifluoromethoxy)phenyl)acetamido)pyridazin-3-yl)pyrrolidin-3-yl)-1H-1,2,3-triazole-4-carboxamide], for which, in assay [1], the 50% inhibitory concentration (IC50) lay in the range of 100 to 500 nM. For the same molecule, the EC50 in assay [2] is 500 to 5000 nM. On the same counts, the results for `Cc1cc(C(F)(F)F)cc(CNC(=O)c2nnc(N3CC[C@@H](c4ccc(NC(=O)Cc5ccccn5)nn4)C3)s2)n1` [Example 48, (R)-N-((6-methyl-4-(trifluoromethyl)pyridin-2-yl)methyl)-5-(3-(6-(2-(pyridin-2-yl)acetamido)pyridazin-3-yl)pyrrolidin-1-yl)-1,3,4-thiadiazole-2-carboxamide] are under 100 nM and under 100 nM. On the same counts, the results for `NC(=O)c1nnc(N2CCC(c3ccc(NC(=O)Cc4ccccn4)nn3)C2)s1` (stereo not drawn) [Example 39, 5-(3-(6-(2-(pyridin-2-yl)acetamido)pyridazin-3-yl)pyrrolidin-1-yl)-1,3,4-thiadiazole-2-carboxamide] are 100 to 500 nM and 500 to 5000 nM.

As for `O=C(Cc1cccc(OC(F)(F)F)c1)Nc1ccc(N2CCC(c3nnc(NC(=O)Cc4ccc(F)cc4F)s3)C2)nn1` (stereo not drawn) [Example 33, 2-(2,4-difluorophenyl)-N-(5-(1-(6-(2-(3-(trifluoromethoxy)phenyl)acetamido)pyridazin-3-yl)pyrrolidin-3-yl)-1,3,4-thiadiazol-2-yl)acetamide], the IC50 in assay [1] is under 100 nM. For the same molecule, the EC50 in assay [2] lay within 100 to 500 nM. The like results for `O=C(Cc1cccc(OC(F)(F)F)c1)Nc1ccc(C2CCN(c3nnc(C(=O)NCc4ccccn4)s3)C2)nn1` (stereo not drawn) [Example 22, N-(pyridin-2-ylmethyl)-5-(3-(6-(2-(3-(trifluoromethoxy)phenyl)acetamido)pyridazin-3-yl)pyrrolidin-1-yl)-1,3,4-thiadiazole-2-carboxamide] were, in that order, under 100 nM and under 100 nM. On the same counts, the results for `CC(=O)Nc1nnc(N2CCC(c3ccc(NC(=O)Cc4cccc(OC(F)(F)F)c4)nn3)C2)s1` (stereo not drawn) [Example 27, N-(6-(1-(5-acetamido-1,3,4-thiadiazol-2-yl)pyrrolidin-3-yl)pyridazin-3-yl)-2-(3-(trifluoromethoxy)phenyl)acetamide] are under 100 nM and 100 to 500 nM.

In the case of `O=C(Cc1cccc(OC(F)(F)F)c1)Nc1ccc(N2CCCC(c3nnc(NC(=O)Cc4ccccc4F)s3)C2)nn1` (stereo not drawn) [Example 23, 2-(2-fluorophenyl)-N-(5-(1-(6-(2-(3-(trifluoromethoxy)phenyl)acetamido)pyridazin-3-yl)piperidin-3-yl)-1,3,4-thiadiazol-2-yl)acetamide], the IC50 in assay [1] is under 100 nM. Further, the EC50 in assay [2] lay within 100 to 500 nM. Take `O=C(Cc1cccc(OC(F)(F)F)c1)Nc1ccc(N2CCC(c3nnc(NC(=O)Cc4noc5ccccc45)s3)C2)nn1` (stereo not drawn) [Example 36, 2-(benzo[d]isoxazol-3-yl)-N-(5-(1-(6-(2-(3-(trifluoromethoxy)phenyl)acetamido)pyridazin-3-yl)pyrrolidin-3-yl)-1,3,4-thiadiazol-2-yl)acetamide]: the half-maximal inhibitory concentration (IC50) in assay [1] is under 100 nM. The EC50 in assay [2] was in the range of 100 to 500 nM. On the same counts, the results for `O=C(Cc1cccc(OC(F)(F)F)c1)Nc1ccc(N2CCC(c3nnc(NC(=O)CC4CCCCO4)s3)C2)nn1` (stereo not drawn) [Example 34, 2-(tetrahydro-2H-pyran-2-yl)-N-(5-(1-(6-(2-(3-(trifluoromethoxy)phenyl)acetamido)pyridazin-3-yl)pyrrolidin-3-yl)-1,3,4-thiadiazol-2-yl)acetamide] are under 100 nM and under 100 nM. On the same counts, the results for `Nc1nnc(C2CCCN(c3ccc(NC(=O)Cc4cccc(OC(F)(F)F)c4)nn3)C2)s1` (stereo not drawn) [Example 13, N-(6-(3-(5-amino-1,3,4-thiadiazol-2-yl)piperidin-1-yl)pyridazin-3-yl)-2-(3-(trifluoromethoxy)phenyl)acetamide] are 100 to 500 nM and 500 to 5000 nM. The like results for `Nc1nnc(C2CCN(c3ccc(NC(=O)Cc4cccc(OC(F)(F)F)c4)nn3)C2)s1` (stereo not drawn) [Example 19, N-(6-(3-(5-amino-1,3,4-thiadiazol-2-yl)pyrrolidin-1-yl)pyridazin-3-yl)-2-(3-(trifluoromethoxy)phenyl)acetamide] were, in that order, 100 to 500 nM and 500 to 5000 nM. Turning to `O=C(Cc1ccccn1)Nc1ccc(N2CCC(c3nnc(NC(=O)Cc4cccc(OC(F)(F)F)c4)s3)C2)nn1` (stereo not drawn) [Example 42, 2-(pyridin-2-yl)-N-(6-(3-(5-(2-(3-(trifluoromethoxy)phenyl)acetamido)-1,3,4-thiadiazol-2-yl)pyrrolidin-1-yl)pyridazin-3-yl)acetamide], the IC50 in assay [1] was under 100 nM. Also, the EC50 in assay [2] is 100 to 500 nM. In the case of `Cn1cc(CC(=O)Nc2nnc(C3CCCN(c4ccc(NC(=O)Cc5cccc(OC(F)(F)F)c5)nn4)C3)s2)cn1` (stereo not drawn) [Example 24, 2-(1-Methyl-1H-pyrazol-4-yl)-N-(5-(1-(6-(2-(3-(trifluoromethoxy)phenyl)acetamido)pyridazin-3-yl)piperidin-3-yl)-1,3,4-thiadiazol-2-yl)acetamide], the 50% inhibitory concentration (IC50) in assay [1] is under 100 nM. The EC50 in assay [2] was in the range of 500 to 5000 nM. Regarding `O=C(Cc1ccccn1)Nc1ccc(C2CCN(c3nnc(C(=O)NCc4cccc(OC(F)(F)F)c4)s3)C2)nn1` (stereo not drawn) [Example 43, 5-(3-(6-(2-(pyridin-2-yl)acetamido)pyridazin-3-yl)pyrrolidin-1-yl)-N-(3-(trifluoromethoxy)benzyl)-1,3,4-thiadiazole-2-carboxamide], the half-inhibitory concentration (IC50) in assay [1] is under 100 nM. In addition, the EC50 in assay [2] is under 100 nM. In the case of `O=C(Cc1cccc(OC(F)(F)F)c1)Nc1ccc(N2CCCC(n3cc(C(=O)NCc4ccccn4)nn3)C2)nn1` (stereo not drawn) [Example 7, N-(Pyridin-2-ylmethyl)-1-(1-(6-(2-(3-(trifluoromethoxy)phenyl)acetamido)pyridazin-3-yl)piperidin-3-yl)-1H-1,2,3-triazole-4-carboxamide], the IC50 in assay [1] lay in the range of 100 to 500 nM. For the same molecule, the EC50 in assay [2] was 500 to 5000 nM.

Regarding `Cn1ccc(CNC(=O)c2nnc(N3CCC(c4ccc(NC(=O)Cc5ccccn5)nn4)C3)s2)n1` (stereo not drawn) [Example 37, N-((1-methyl-1H-pyrazol-3-yl)methyl)-5-(3-(6-(2-(pyridin-2-yl)acetamido)pyridazin-3-yl)pyrrolidin-1-yl)-1,3,4-thiadiazole-2-carboxamide], the IC50 in assay [1] was under 100 nM. The EC50 in assay [2] is 100 to 500 nM.

Values taken from patent US10738043B2, “GLS1 inhibitors for treating disease” (Board of Regents, The University of Texas System, priority 2015, dated 2020).
